# Test system: T-type calcium channels
# Experiment: T-type calcium channel inhibitory activity (fluorometric FLIPR Fluo-4 and whole cell patch clamp)
# Type: cell-based, mammalian
# Details: inhibition of T-type calcium channels; cells natively expressing or HEK-293 cells expressing recombinant channels
# Procedure: T-type calcium channel inhibitory activity of some compounds of the invention was evaluated using both fluorometric as well as electrophysiological measurement methodologies, which are known to those skilled in the art. Fluorescence measurement of changes in intracellular calcium due to entry of calcium through T-type calcium channels was assessed using calcium sensitive fluorescent dyes Fluo-4 and Fluo-3. In brief, cells natively expressing T-type channels or HEK-293 cells transiently or stably expressing recombinant mammalian T-type calcium channels grown in 96-well tissue culture plates in DMEM/High glucose, Hyclone, Fetal Bovine Serum (10%), and 2 mM sodium pyruvate 2 mM (and for cells lines recombinantly expressing T-type calcium channels, G418 @ 400 mg/liter) were loaded with 4 μM Fluo-4 made up in Earls Balanced Salt Solution (EBSS). After incubation for 30 minutes at room temperature, cells were washed with low calcium (0.5 mM) EBSS to remove extracellular Fluo-4. Baseline fluorescence was measured in a FLIPR (FLuorescence Image Plate Reader) (Molecular Devices Inc) after applying test compounds at desired concentration for 5-10 minutes. The effect of test compound on calcium entry was assessed by monitoring changes in Fluo-4 fluorescence following an elevation of extracellular calcium concentration from 0.5 mM to 5 mM. […] Native cells natively expressing T-type channels or HEK-293 cells transiently or stably expressing recombinant mammalian T-type calcium channels were grown in DMEM/High glucose, Hyclone, Fetal Bovine Serum (10%), 2 mM sodium pyruvate 2 mM (and for cells lines recombinantly expressing T-type calcium channels, G418 @ 400 mg/liter) on glass coverslips in 35 mm tissue culture dishes. Experiments were performed by placing T-type calcium channels expressing cells in a recording chamber perfused with EBSS (which contains (in mM): 132 NaCl, 5.4 KCl, 1.8 CaCl2, 0.8 MgCl2, 10 Hepes, 5 glucose, pH 7.4 with NaOH) on the stage of an inverted microscope. Electrical currents were measured using the whole cell configuration of the patch clamp technique (Axopatch 200B, Axon Instruments (Molecular Devices) (see Hamill et al (1981) Pflugers Arch. 1981 391:85-100) using 2-2.5 MOhm resistance glass pipettes filled with 135 CsF, 5 CsCl, 5 NaCl, 5 EGTA, 10 HEPES, pH 7.3 with CsOH, Osmolarity ˜288 mOsm. Test compound effects were typically assessed under conditions in which approximately half of the available channels were inactivated either by an 8 second conditioning depolarization from a holding potential of −100 mV to a potential ranging from −70 mV to −60 mV or by continually holding the membrane potential at −70 mV. Test compounds were assessed for their ability to reduce the amplitude of the inward T-type calcium current elicited by a 100 ms step depolarization −20 or −30 mV.
row,SMILES,IC50 [µM]
1,"CCOc1cccc(S(=O)(=O)c2cnc(Nc3cc(NCCOC)ncn3)s2)c1 [Example 4, N-[5-(3-Ethoxy-benzenesulfonyl)-thiazol-2-yl]-N′-(2-methoxy-ethyl)-pyrimidine-4,6-diamine]",1 to 10
2,"CCOc1cccc(S(=O)(=O)c2cnc(Nc3cc(N(C)CCOC)ncn3)s2)c1 [Example 5, N-[5-(3-Ethoxy-benzenesulfonyl)-thiazol-2-yl]-N′-(2-methoxy-ethyl)-N′-methyl-pyrimidine-4,6-diamine]",1 to 10
3,"CCOc1cccc(S(=O)(=O)c2cnc(Nc3cc(NCCOC)nc(C)n3)s2)c1 [Example 7, N-[5-(3-ethoxy-benzenesulfonyl)-thiazol-2-yl]-N′-(2-methoxy-ethyl)-2-methyl-pyrimidine-4,6-diamine]",1 to 10
4,"CCOc1cccc(S(=O)(=O)c2cnc(Nc3cc(NCCN4CCCC4)nc(C)n3)s2)c1 [Example 9, N-[5-(3-ethoxy-benzenesulfonyl)-thiazol-2-yl]-2-methyl-N′-(2-pyrrolidin-1-yl-ethyl)-pyrimidine-4,6-diamine]",0.001 to 1
5,"CCOc1cccc(S(=O)(=O)c2cnc(Nc3cc(NCC[C@H]4CCNC4)nc(C)n3)s2)c1 [Example 10, N-[5-(3-ethoxy-benzenesulfonyl)-thiazol-2-yl]-2-methyl-N′-(R)-(pyrrolidin-3-yl-ethyl)-pyrimidine-4,6-diamine]",0.001 to 1
6,"CCOc1cccc(S(=O)(=O)c2cnc(Nc3cc(NCC4(N)CCCCC4)nc(C)n3)s2)c1 [Example 11, N-(1-Amino-cyclohexylmethyl)-N′-[5-(3-ethoxy-benzenesulfonyl)-thiazol-2-yl]-2-methyl-pyrimidine-4,6-diamine]",0.001 to 1
7,"CCOc1cccc(S(=O)(=O)c2cnc(Nc3nc(C)nc(NCCN4CCCC4)c3F)s2)c1 [Example 12, N-[5-(3-Ethoxy-benzenesulfonyl)-thiazol-2-yl]-5-fluoro-2-methyl-N′-(2-pyrrolidin-1-yl-ethyl)-pyrimidine-4,6-diamine]",0.001 to 1
8,"CCOc1cccc(S(=O)(=O)c2cnc(Nc3nc(C)nc(N(C)CCOC)c3F)s2)c1 [Example 13, N-[5-(3-ethoxy-benzenesulfonyl)-thiazol-2-yl]-5-fluoro-N′-(2-methoxy-ethyl)-2, N′-dimethyl-pyrimidine-4,6-diamine]",0.001 to 1
9,"CCOc1cccc(S(=O)(=O)c2cnc(Nc3nc(C)nc(NCC(C)(C)N)c3F)s2)c1 [Example 14, N-(2-Amino-2-methyl-propyl)-N′-[5-(3-ethoxy-benzenesulfonyl)-thiazol-2-yl]-5-fluoro-2-methyl-pyrimidine-4,6-diamine]",0.001 to 1

# Continued, values first:
row,IC50 [µM],SMILES
1,0.001 to 1,"CCOc1cccc(S(=O)(=O)c2cnc(NC(=O)Cc3ccc(OC)c(OC)c3)s2)c1 [Example 1, 2-(3,4-Dimethoxy-phenyl)-N-[5-(3-ethoxy-benzenesulfonyl)-thiazol-2-yl]-acetamide]"
2,0.001 to 1,"CCOc1cccc(S(=O)(=O)c2cnc(Nc3cc(NCCN4CCCC4)ncn3)s2)c1 [Example 2, N-(2-Pyrrolidin-1-ethyl)-N′-[5-(3-ethoxy-benzenesulfonyl)-thiazol-2-yl]-pyrimidine-4,6-diamine]"
3,0.001 to 1,"CCOc1cccc(S(=O)(=O)c2cnc(Nc3cc(NCCN(C)C)ncn3)s2)c1 [Example 3, N-(2-Dimethylamino-ethyl)-N′-[5-(3-ethoxy-benzenesulfonyl)-thiazol-2-yl]-pyrimidine-4,6-diamine]"
4,0.001 to 1,"CCOc1cccc(S(=O)(=O)c2cnc(Nc3cc(NCC(C)(C)N)nc(C)n3)s2)c1 [Example 6, N-(2-Amino-2-methyl-propyl)-N′-[5-(3-ethoxy-benzenesulfonyl)-thiazol-2-yl]-2-methyl-pyrimidine-4,6-diamine]"
5,0.001 to 1,"CCOc1cccc(S(=O)(=O)c2cnc(Nc3cc(NCCN(C)C)nc(C)n3)s2)c1 [Example 8, N-(2-Dimethylamino-ethyl)-N′-[5-(3-ethoxy-benzenesulfonyl)-thiazol-2-yl]-2-methyl-pyrimidine-4,6-diamine]"

# From US20070197523A1, “CALCIUM CHANNEL ANTAGONISTS” (ICAGEN, INC., priority 2005, published 2007)
